“And” between values parts separate entries of the source, which are not always exact repeats. Equal entries are not always repeated. Where no end group is shown, it is not given here.
Experiments:
hind paw edema = experiment: Carrageenan mouse paw edema model of inflammation; format: in vivo, ICR derived mice; settings: PO once daily × 5
Description: Test substance LPF-35 at 5 mg/kg and reference agent Aspirin at 100 mg/kg were administered orally once daily for 5 consecutive days to groups of 8 ICR (4 male and 4 female) derived mice weighing 22±2 gms. One hour after 5th dose, right hind paw was injected with carrageenan (0.05 ml of 1% suspension intraplantar). The hind paw edema was measured 4 hours later. Convention: reduction of hind paw edema by 30 percent or more indicates significant acute anti-inflammatory activity. Each animal was fasted overnight before Carrageenan challenge.

heart allograft = experiment: Heart allograft survival model in rats; format: in vivo, rats (Wistar Furh recipients, Baffalo donors); settings: FK506 alone, 0.8 mg/kg oral gavage once daily days 0 to +14; n=10
Description: The activity of LPF-35 in combination with FK506 was compared with FK506 alone in a heart allograft survival model in rats. Wistar Furh (WF; RT1) recipients of heart allograft from Baffalo donors (BUF; RT1b) were administered oral LPF-35 (5 mg/kg) plus FK506 (0.8 mg/kg), FK506 alone or placebo. The results are presented as a mean±standard deviation (MST±SD). Significance between groups was calculated using Student T-test with p<0.05 considered as significant. In group # 1 control WF recipients of BUF heart allografts (n=5) were untreated and heart allografts were rejected in an acute fashion within 6.4±0.5 days. In group # 2 WF recipients of BUF heart allografts (n=10) were treated daily once (days 0 to +14) with 0.8 mg/kg FK506 delivered by oral gavage. This protocol was effective in prolonging the survival of heart allografts to a MST of 22.3±6.7 days (p=0.0002). […] In group # 3 WF recipients of BUF heart allografts (n=6) were treated daily once (days 0 to +14) with 0.8 mg/kg FK506 delivered by oral gavage in combination with LPF-35 daily for 14 days. This protocol was effective in prolonging the survival of heart allografts to a MST of 49.5±28 days (p=0.0077). […] An effect of reducing organ transplant rejection is indicative of beneficial effects in GVHD.

[1] = test system: clinical bacterial isolates; experiment: Peptide MICs by NCCLS broth microdilution; format: cell-based; settings: geometric mean MIC; 742 clinical bacterial isolates representing 35 species
Description: The novel peptides described in this application have shown substantial anti-microbial activity. Peptide MICs were determined by the broth microdilution method recommended by the NCCLS (M7-A5). In each medium, the concentrations of peptide were serial two-fold dilutions ranging from 8192 to 8 μg/mL. Mueller-Hinton broth and Peptone broth were used throughout, using the following media: 1) 5rCAMHB, 2) CAMHB supplemented with 3% lysed horse blood, 3) Haemophilus test medium, 4) peptone broth at pH 7, 5) peptone broth at pH 7.5, 6) peptone broth supplemented with 25 μg/mL calcium and 12.5 μg/mL magnesium, 7) peptone broth supplemented with 1.5 g/L soluble starch. On each day of testing, colony counts were performed on the broth from the growth control well immediately after inoculation from two randomly selected isolates to assure appropriate inoculum density. A total of 742 clinical bacterial isolates representing 35 species were tested.

Ascaris suum antigen = experiment: Sheep model of allergic asthma; format: in vivo; settings: lung resistance and carbachol response, FIG. 5, FIG. 6
Description: Peptides LPF-32 and LPF-35 were both tested in an established sheep model of allergic asthma. […] Allergic sheep previously characterized as dual responders (displaying early and late phases of bronchoconstriction), were administered peptide followed by inhalation challenge with Ascaris suum antigen.
Baseline dose response curves to aerosolized carbachol were obtained in all sheep 1-3 days before the start of dosing. Sheep were dosed with peptide or placebo by nebulization or oral gavage in the inhaled and oral experiments respectively. The sensitized sheep were then challenged with Ascaris suum antigen to produce early and late airway responses, as measured by mean lung resistance (pulmonary flow resistance, RL). Mean lung resistance was measured using tracheal and pleural pressure catheters connected to a differential pressure transducer. […]
To assess airway responsiveness, cumulative dose response curves to carbachol were obtained, as measured by specific lung resistance, or SRL (SRL=RL * thoracic gas volume). […] Airway hypersensitivity (AH) was determined by calculating the cumulative carbachol dose that increased SRL by 400% over the post-saline value by interpolation from the dose response curve. […]

MIP3-α = MIP3-α expression in hepatocytes, ELISA; format: cell-based, human; settings: 0.04 and 0.2 mg/mL, supernatant at 2 h and 4 h; FIG. 9
Source text: Still further, it is envisioned that lactoferrin related peptides stimulate production of MIP-3alpha from hepatocytes. Lactoferrin is known to contribute to the defense systems of the body through its anti-microbial properties. […] The innate immune system is the ‘first line of defense’ of the body against hostile environments and comprise of a variety of effector and cellular mechanisms. This innate immune response is initially likely mediated by the ‘detection system’ of receptors known to be present on the surface of the gut epithelial cells, such as pattern recognition receptors, IL-1 receptor and general ‘scavenger’ receptors. These receptors recognize and respond to specific structural features of the presented molecules. As a result, various intracellular signaling pathways may be initiated (e.g., NFκB, Wnt, etc.) that result in the overall orchestration of the cellular response of the body to the prevailing biological situation (e.g., infection). RhLF and peptides derived from rhLF elicit a similar response of human hepatocytes in vitro in terms of producing an important chemokine—namely MIP-3-alpha. It is surmised that some general structural features that are responsible for the biological response to rhLF are retained in peptides that are structurally related to the parent molecule (rhLF).
MIP3-α has been associated with the stimulation of innate immune responses. […]

For `CC(=O)Oc1ccccc1C(=O)O` [Aspirin], the “Paw Volume LP” value (hind paw edema; LP, average n=8) was 12.38 ×0.01 ml, the “Paw Volume Diff.” value (hind paw edema; RP minus LP) was 5.00 ×0.01 ml and the “% Inhibition” value (hind paw edema; hind paw edema vs vehicle) was 32%. For the same compound, the “Paw Volume RP” value (hind paw edema; right hind paw injected with carrageenan, 4 hours later, average n=8) was 17.38 ×0.01 ml.
In the case of `C=CC[C@@H]1/C=C(\C)C[C@H](C)C[C@H](OC)[C@H]2O[C@@](O)(C(=O)C(=O)N3CCCC[C@H]3C(=O)O[C@H](/C(C)=C/[C@@H]3CC[C@@H](O)[C@H](OC)C3)[C@H](C)[C@@H](O)CC1=O)[C@H](C)C[C@@H]2OC` [FK506], the “survival of heart allografts, MST ± SD” value (heart allograft) is reported as 22.3±6.7 days.
For “RRRRRRSVQWAAVSQPIATEAFQWQRNMRKRRR [LPF-25]”, the “MIC GeoMean” value [1] was 66 µg/mL.
With “RRRRRRSVQWAAVSQPIATKAFQWQRNMRKRRR [LPF-36]” the “MIC GeoMean” value [1] was 24 µg/mL.
For “RRRRRRSVQWQAVSQPEATKQFQWQRNMRKRRR [LPF-31]”, the “MIC GeoMean” value [1] was 41 µg/mL.
“RRRRRRSVQWQAVSQPGATKQFQWQRNMRKRRR [LPF-32]” was tested, and the “MIC GeoMean” value [1] was 25 µg/mL and the “late phase inflammation and airway hyperresponsiveness” value (Ascaris suum antigen) was “substantially inhibit”.
For “RRRRRRSVQWQAVSQPIATEQFQWQRNMRKRRR [LPF-24]”, the “MIC GeoMean” value [1] was 43 µg/mL and 51 µg/mL.
For “RRRRRRSVQWQAVSQPIATIQFQWQRNMRKRRR [LPF-35]”, the “MIC GeoMean” value [1] was 15 µg/mL and the “expression of MIP3-α in Hepatocytes” value (MIP3-α) was “stimulates”.
In the case of “RRRRRRSVQWQAVSQPIATKQFQWQRNMRKRRR [LPF-33]”, the “MIC GeoMean” value [1] is reported as 28 µg/mL.
For “RRRRRRSVQWQAVSQPQATGQFQWQRNMRKRRR [LPF-34]”, the “MIC GeoMean” value [1] was 32 µg/mL.

From patent US7420033B2, “Composition of lactoferrin related peptides and uses thereof” (Agennix, Inc., priority 2004, dated 2008)
